The test system of series [1] is murine primary keratinocytes. The series can be described thus: Cytokines in culture supernatant of murine primary keratinocytes (V-PLEX Proinflammatory Panel1 / CXCL1 ELISA). The format is cell-based, mouse. On the technique in general: An ELISA detects its analyte on a solid surface through an enzyme-linked reagent.
Series [2] concerns GAS. In words: Therapeutic treatment in GAS-induced necrotizing fasciitis mouse model. Type of series: in vivo, mouse (C57BL6).
In series [3] the test system is SpyCEP. As to conditions: incubated overnight with purified SpyCEP or PBS; mass spectrometry read-out; CXCL1 fragments of 5.9 kDa and 1.3 kDa.
For series [4], the target named is SpeB (Streptococcus pyogenes, UniProt P0C0J0).
The subject of series [5] is human HaCat keratinocyte cell line. In words: IL-8 ELISA on culture supernatant of HaCat. Type of series: cell-based. As to conditions: HaCat stimulated with 3.6 μM hepcidin; n ≥ 3 per group.
The test system of series [6] is human 3D organotypic skin model. The series can be described thus: IL-8 ELISA on culture supernatant of human 3D organotypic skin model. As to conditions: human 3D skin equivalent model stimulated with 3.6 μM hepcidin; n ≥ 3 per group. Type of series: cell-based.
The subject of series [7] is GAS. The series can be described thus: Rescue experiment: CXCL1 injection into GAS-infected Hamp1Δker mice. As to conditions: 1 µg/mouse rCXCL1 s.c. with infection and intralesionally at 24, 48 and 72 h, n ≥ 4 per group.
Experimental: (G) Bacterial count in the skin of Hamp1^lox/lox and Hamp1Δ^ker mice injected daily with CXCL1 or PBS; n ≥ 4 per group.
were performed in a C57BL6 background, using 8-12 week old male littermates.
Mouse model of GAS infection
A well-established model of necrotizing soft tissue infection was adapted for this study (3, 4).
In brief, Hamp1lox/lox and Hamp1Δker mice male littermates were subcutaneously injected with
107 c.f.u. of M1T1 5448 GAS. Weight loss and lesion size of mice were estimated daily. After
96 hours, mice were sacrificed and skin necrotic ulcers, spleen, and blood (via retro orbital
bleeding) were recovered and homogenized in sterile PBS. Serial dilutions of tissue
homogenate were spread on THA plates to enumerate bacterial colony forming units (c.f.u.).
For the rescue experiment, Hamp1lox/lox and Hamp1Δker littermates were subcutaneously
infected with 107 c.f.u. of GAS with PBS or 1 µg/mouse of recombinant CXCL1 (rCXCL1;
R&D system, 1395-KC-025/CF). Mice were intralesionally injected again at 24, 48 and 72 h
with PBS or 1 µg of rCXCL1.

Where no end group is shown, it is not given here.

On to “hepcidin (DTNFPICIFCCKCCNNSQCGICCKT; ends and bridges not checked; cysteine pairing not given here; UniProt Q9EQ21 59-83, looked up)”, for which the “CXCL1 in culture supernatant” value in series [1] (murine primary keratinocytes incubated with 0.36 μM and 3.6 μM synthetic hepcidin for 1 or 3 hours, V-PLEX cytoplex, n = 3 per group) is reported as “dose-dependent increase”. Further, the “CXCL1 induction measured by ELISA” value in series [1] (murine primary keratinocytes, 3.6 uM hepcidin, 1 or 3 hours, N=3 per group (Supplemental Figure 5)) was “confirmed by ELISA”. In series [2] (CXCL1–/– mice, hepcidin treatment (Supplemental Figure 8)), the “bacterial dissemination in CXCL1–/– mice” value is “did not prevent bacterial dissemination”. Further, the weight variation result in series [2] (WT mice, s.c. 1 μg hepcidin 24 h after GAS infection, then 500 ng at 48 and 72 h, 4 days, n = 9) is “recovered their initial weight”. Moreover, in series [2] (WT mice, s.c. 1 μg hepcidin 24 h after GAS infection, then 500 ng at 48 and 72 h, spleen c.f.u. at 96 hours, n = 9, all control mice disseminated), the “mice with absolutely no bacterial dissemination (bacterial count in spleen)” value is 7 of the 9. Further, the “signs of systemic disease” value in series [2] (WT mice, s.c. 1 μg hepcidin 24 h after GAS infection, then 500 ng at 48 and 72 h, vs PBS (weight loss, rough hair coat, hunched posture), n = 9) is recorded as “did not present any signs of systemic disease”. The neutrophil recruitment result in series [2] (WT mice, s.c. 1 μg hepcidin at inoculation site 24 h after GAS infection, then 500 ng at 48 and 72 h, n = 6 per group) is “increase in neutrophil recruitment”. For the same molecule, the “cleavage by SpyCEP” value in series [3] is reported as “not cleaved”. Besides, the “cleavage by SpeB” value in series [4] was “not cleaved”.

Take Ferric Ammonium Citrate [iron]: the “CXCL1 production (ELISA)” value in series [1] (murine primary keratinocytes stimulated 3 hours with 500 μM ferric ammonium citrate (FAC), n = 3 per group) was “stimulated CXCL1 production”.

Consider “human hepcidin (DTHFPICIFCCGCCHRSKCGMCCKT; ends and bridges not checked; cysteine pairing not given here; UniProt P81172 60-84, looked up) [human hepcidin used to stimulate HaCat and human 3D organotypic skin model]”, for which the “production of IL-8” value in series [5] and in series [6] was “induce the production of IL-8” throughout.

B1: CXCL1 (protein, UniProt P12850 25-96, looked up)
Growth-regulated alpha protein: APIANELRCQCLQTMAGIHLKNIQSLKVLPSGPHCTQTEVIATLKNGREACLDPEAPLVQKIVQKMLKGVPK
Consider B1, for which the “cleavage by SpyCEP” value in series [3] is recorded as “cleaved”. Moreover, the “bacterial count in the skin lesion” value in series [7] was “significantly decreased the number of bacteria”.

The record behind these values is publication PMC6934188, “Epidermal hepcidin is required for neutrophil response to bacterial infection” (The Journal of Clinical Investigation, 2019).
